Data on 88 molecules can be found in PubChem BioAssay AID489006 (Sanford-Burnham Center for Chemical Genomics, 2010).

SMILES strings stand for the structures. Active and inactive are the calls of the source. How the calls were made is not given here.

This assay relates to Jurkat NF-kB reporter, luminescence. The assay is described as follows: NF-kB reporter inhibition in Jurkat cells, dose response, selectivity assay for B-cell receptor NF-kB inhibitor project, cell-based, luminescence (AID 489006).

With `O=C(Nc1nc(-c2ccccc2)cs1)c1ccccc1NS(=O)(=O)c1ccc(F)cc1`, the 50% inhibitory concentration (IC50) was 19 µM.

`COc1ccc(OCc2cccc(C(=O)Nc3cc(C)on3)c2)cc1`: the half-maximal inhibitory concentration (IC50) was 3.77 µM.

With `COc1ccc(/C=C2\SC(=S)N(CCCC(=O)Nc3ccc(O)cc3)C2=O)cc1`, the IC50 was > 80 µM (inactive).

Regarding `Oc1cc(O)cc(-c2cc3ccc(O)cc3o2)c1`, the IC50 is > 80 µM (inactive).

As to `Cc1ccc(/C=C2\SC(=S)N(CCCC(=O)Nc3ccc(O)cc3)C2=O)cc1`, the IC50 was 18.9 µM.

Consider `CCn1c(=O)cc(SCC(=O)N2CCN(C)CC2)c2ccccc21`, for which the IC50 is > 80 µM (inactive).

As for `CCC(CC)C(=O)Nc1ccc(Sc2ccc([N+](=O)[O-])cc2)cc1`, the IC50 is 6.83 µM.

As for `COc1ccc(-n2ncc3c(N4CCC(C(N)=O)CC4)ncnc32)cc1`, the IC50 was > 80 µM (inactive).

For `Cc1cnc(NC(=O)Nc2ccc(Cl)cc2)s1`, the IC50 is > 80 µM (inactive).

For `CC1=CC(C)(C)Nc2ccc(OC(=O)CN3C(=O)CCC3=O)cc21`, the IC50 is 1.54 µM.

Regarding `Cc1cc(OCC(=O)Nc2ccc(CCO)cc2)c2c(C)c(C)c(=O)oc2c1`, the IC50 was > 80 µM (inactive).

For `CCC(CO)Oc1cc(NCc2ccccc2O)c2ncn(C(C)C)c2c1` (stereo not drawn), the IC50 is > 80 µM (inactive).

Regarding `CCn1c(=O)cc(SCC(=O)N2CCCCC2)c2ccccc21`, the IC50 is > 80 µM (inactive).

On to `Cc1csc(NC(=O)CCc2c(C)nc3cc(-c4ccc(Cl)cc4)nn3c2C)n1`, for which the concentration for half-maximal inhibition (IC50) is 0.36 µM.

`CC1CC(C)(C)Nc2ccc(OC(=O)c3ccco3)cc21` (stereo not drawn): the half-inhibitory concentration (IC50) is 3.18 µM.

As for `CC1=CC(C)(C)Nc2ccc(OC(=O)CN3C(=O)c4ccccc4C3=O)cc21`, the half-inhibitory concentration (IC50) was 1.28 µM.

For the molecule `O=C(Nc1nc2c(Br)cc(Br)cc2c(=O)s1)c1ccco1`, the IC50 was 2.52 µM.

For `CCN(CC)c1ccc(/C=N/N=C(c2ccccc2)c2ccccc2)c(O)c1`, the IC50 is > 80 µM (inactive).

Turning to `CCC(C)N1C(=O)/C(=C/c2c(NCCCOC(C)C)nc3c(C)cccn3c2=O)SC1=S` (stereo not drawn), the IC50 was > 80 µM (inactive).

As for `CC(=O)c1cn(CCOc2cc(C)ccc2C)c2ccccc12`, the IC50 was > 80 µM (inactive).

For the molecule `COc1cc(C2C(C#N)=C(N)Oc3cc(N)ccc32)cc(OC)c1OC` (stereo not drawn), the IC50 is > 80 µM (inactive).

Take `COc1cc(OC)c(/C=N/NC(N)=S)cc1Br`: the IC50 is > 80 µM (inactive).

As for `Cn1c(=O)cc(OCC(=O)N2CCC3(CC2)OCCO3)c2ccccc21`, the IC50 is > 80 µM (inactive).

Take `COC(=O)C1=C(c2ccc(-c3ccccc3)c(F)c2)C[C@@H]2CC[C@H]1N2C(=O)N1CCCC1`: the IC50 was 35.8 µM (inactive).

As for `C/C=C(/C)C(=O)OC1Cc2c(ccc3ccc(=O)oc23)OC1(C)C` (stereo not drawn), the IC50 is > 80 µM (inactive).

Consider `CC1CC(C)CN(S(=O)(=O)c2ccc(C(=O)NCCCn3ccnc3)cc2)C1` (stereo not drawn), for which the IC50 was 54.6 µM (inactive).

Take `O=C(Cc1cccc2ccccc12)Nc1ccc(-c2cc3ccccc3oc2=O)cc1`: the IC50 is 14.8 µM.

`COc1ccc(-c2ccc(N(C)C)cc2)cc1[C@H]1[C@H]2C=CC[C@@H](C)[C@@H]2C(=O)N1Cc1ccccc1`: the IC50 is > 80 µM (inactive).

As for `CCNc1nc(C)c2cc(Br)c(=O)n(CC)c2n1`, the half-maximal inhibitory concentration (IC50) was 7.89 µM.

As to `CCC(=O)N1c2ccccc2C(N(C(C)=O)c2ccccc2)CC1C` (stereo not drawn), the IC50 is > 80 µM (inactive).

With `CC1=CC(C)(C)Nc2ccc(OC(=O)c3ccco3)cc21`, the 50% inhibitory concentration (IC50) is 1.4 µM.

`CCOC(=O)Cc1csc(NC(=S)NC(=O)c2ccc(C)cc2)n1`: the IC50 is 0.72 µM.

Consider `O=C(O)COc1ccc(-c2nccc(-c3ccccn3)n2)cc1`, for which the IC50 is 0.22 µM.

On to `Cc1ccc(-c2c[n+]3c(n2-c2ccccc2)SCC3)cc1`, for which the IC50 was > 80 µM (inactive).

Turning to `Cc1nc2cc(-c3ccc(Cl)cc3)nn2c(C)c1CCC(=O)NC(C)c1ccc2c(c1)OCCO2` (stereo not drawn), the IC50 is 0.7 µM.

Regarding `COCCNC(=O)CSCc1nc(-c2ccc(SC)cc2)oc1C`, the IC50 is > 80 µM (inactive).

On to `O=C(Nc1ccc(NC(=O)c2cc3ccccc3o2)cc1)c1ccc2c(c1)OCCO2`, for which the IC50 is > 80 µM (inactive).

With `COc1ccc(OCc2cccc(C(=O)NN)c2)cc1`, the IC50 was 5.14 µM.

`CCCCn1c2c(c(=N)c3ccccc31)CCC2`: the IC50 is > 80 µM (inactive).

Regarding `O=C(CCCN1C(=O)S/C(=C\C=C\c2ccccc2)C1=O)Nc1ccc(O)cc1`, the IC50 is > 80 µM (inactive).

Regarding `Cc1ccc(-c2nn3c(C)nnc3c3ccccc23)cc1S(=O)(=O)NC(C)(C)CO`, the IC50 is 23.9 µM (inactive).

For the molecule `Cc1nc2cc(-c3ccc(Cl)cc3)nn2c(C)c1CCC(=O)NCc1ccco1`, the IC50 was 0.34 µM.

Regarding `Cn1c(=O)n(C)c2cc(/C=C3/NC(=O)N(Cc4ccccc4)C3=O)ccc21`, the IC50 is > 80 µM (inactive).

Turning to `O=C(CCCN1C(=O)/C(=C/c2ccccc2Cl)SC1=S)Nc1cccnc1`, the IC50 was 6.58 µM.

For `Cc1nn(-c2ccc(N3CCCCC3)nn2)c(C)c1CCC(=O)Nc1ccccc1F`, the IC50 is 71.1 µM (inactive).

Turning to `CC1CN(S(=O)(=O)c2ccc(C(=O)Nc3nc(-c4cc5ccccc5o4)cs3)cc2)CC(C)O1` (stereo not drawn), the IC50 is 49.9 µM (inactive).

Regarding `O=C(CSCCO)Nc1ccc(C23CC4CC(CC(C4)C2)C3)cc1`, the IC50 is > 80 µM (inactive).

As for `c1ccc(CCNc2ncnc3ccccc23)cc1`, the IC50 is 64.2 µM (inactive).

Regarding `CCCNC(=O)c1ccc(N2CCC3(CC2)CC(c2cccc(Br)c2)=NO3)c(NC(=O)c2ccc(Cl)c([N+](=O)[O-])c2)c1`, the IC50 was > 80 µM (inactive).

On to `O=C(O)CCSc1ncnc2sc(-c3ccccc3)cc12`, for which the IC50 was 1.07 µM.

Consider `Cc1ccc(CSc2nnc(SCC(=O)N/N=C/C=C/c3ccccc3[N+](=O)[O-])s2)cc1`, for which the IC50 was 67 µM (inactive).

In the case of `Nc1ccc(-c2cc3ccccc3oc2=O)cc1`, the IC50 was 0.24 µM.

For the molecule `COc1ccc(/C=C2/SC(=S)N(CCCC(=O)Nc3ccc(O)cc3)C2=O)cc1OC`, the IC50 is > 80 µM (inactive).

For the molecule `COc1cc(/C=N/Nc2nc(Nc3ccccc3)nc(N3CCOCC3)n2)ccc1OC(=O)c1ccco1`, the IC50 is > 80 µM (inactive).

`COc1cc(-c2nc3n(n2)C(c2ccc(F)cc2)C2=C(CCCC2=O)N3)cc(OC)c1OC` (stereo not drawn): the IC50 is > 80 µM (inactive).

Take `COC(=O)c1c(NC(=O)c2cccc([N+](=O)[O-])c2)sc(C(N)=O)c1C`: the IC50 is > 80 µM (inactive).

With `Cc1nc([N+](=O)[O-])c(Sc2nc3ccc([N+](=O)[O-])cc3[nH]2)n1Cc1ccccc1`, the IC50 is 7.42 µM.

In the case of `NNC(=O)COc1ccc(-c2nccc(-c3ccc(F)cc3)n2)cc1`, the IC50 was 1.79 µM.

As for `N=c1c2c(n(Cc3ccc(Cl)c(Cl)c3)c3c1CCC3)CCCC2`, the IC50 is 9.18 µM.

Regarding `Cc1nnc2c3ccccc3c(-c3ccccc3)nn12`, the IC50 was > 80 µM (inactive).

For `CCc1cccc(NC(=O)c2ccc(CNc3c(N4CCCC4)c(=O)c3=O)cc2)c1`, the IC50 was > 80 µM (inactive).

`CC1(c2nnc(-c3cccc(Cl)c3)o2)CC(c2cccc(Cl)c2)=NO1` (stereo not drawn): the IC50 was > 80 µM (inactive).

As to `COc1ccc(C(=O)Nc2nnc(Cc3cccs3)s2)cc1OC`, the IC50 is > 80 µM (inactive).

Consider `COc1ccc(/C=C2\SC(=S)N(CCC(=O)Nc3ccc(C(=O)O)cc3)C2=O)cc1OC`, for which the IC50 is > 80 µM (inactive).

For `N=c1ccn(Cc2c(Cl)cccc2Cl)cc1`, the IC50 is > 80 µM (inactive).

As for `Cc1ccc(C(=O)CSc2nnc(COc3cc(C)cc(C)c3)o2)cc1`, the IC50 is > 80 µM (inactive).

As to `O=C(NNC(=O)C12CC3CC(CC(Br)(C3)C1)C2)c1ccccc1F`, the IC50 was > 80 µM (inactive).

As to `CCC(C)[C@H](N)c1nnc(SCC(=O)c2ccc(Cl)cc2)o1` (stereo partly drawn), the IC50 is 72.9 µM (inactive).

In the case of `CC(=C/c1ccco1)/C=N/NC(=O)CSc1nnc(SCc2ccc(C)cc2)s1`, the IC50 is > 80 µM (inactive).

With `COc1cccc(Cn2nnc(C(=O)Nc3cc(Cl)ccc3OC)c2N)c1`, the IC50 was > 80 µM (inactive).

Turning to `COc1ccc(/C=N\NC(=O)c2sccc2C)cc1Cn1nc(C)cc1C`, the IC50 is > 80 µM (inactive).

Regarding `CCCC(=O)Nc1ccc(Sc2ccc([N+](=O)[O-])cc2)cc1`, the IC50 was 15.9 µM.

Take `CN1C(=O)CSc2ccc(NC(=O)N3CCN(c4ccccc4)CC3)cc21`: the IC50 is > 80 µM (inactive).

As to `O=[N+]([O-])c1ccc(Sc2cc[n+]([O-])c3ccccc23)c([N+](=O)[O-])c1`, the IC50 was 6.03 µM.

As for `COc1ccc(-c2ccc(C(C)=O)cc2)cc1[C@H]1[C@H]2C=CC[C@@H](C)[C@@H]2C(=O)N1Cc1ccccc1`, the IC50 is > 80 µM (inactive).

Turning to `C=CCOC(=O)COc1cc(C)cc2oc(=O)c3c(c12)CCC3`, the IC50 is > 80 µM (inactive).

For `O=C(CN1C(=O)c2ccccc2S1(=O)=O)c1ccccc1Cl`, the IC50 is 1.26 µM.

Regarding `Cc1ccc(S(=O)(=O)N2CCCCC2CCNC(=O)C(=O)NCc2ccncc2)cc1` (stereo not drawn), the IC50 was > 80 µM (inactive).

`CCc1ccc(/C=C2/SC(=S)N(CCC(=O)Nc3cccnc3)C2=O)cc1`: the IC50 is > 80 µM (inactive).

As to `CCc1ccc(/C=C2\SC(=S)N(CCCC(=O)Nc3ccccn3)C2=O)cc1`, the half-inhibitory concentration (IC50) was 1.58 µM.

Consider `COc1cc(NC(=O)c2ccco2)c(OC)cc1NC(=O)c1cc(OC)c(OC)c(OC)c1`, for which the IC50 is 23 µM (inactive).

Regarding `COc1ccc(-c2ccc(C)cc2)cc1[C@H]1[C@H]2C=CC[C@@H](C)[C@@H]2C(=O)N1Cc1ccccc1`, the IC50 is > 80 µM (inactive).

Regarding `CCc1ccc(-c2nnn(CCC(=O)OC)n2)cc1`, the IC50 is 1.78 µM.

Regarding `COc1cc(C(=O)Nc2cc(C)c(OCC(=O)N3CCOCC3)c(C)c2)cc(OC)c1OC`, the IC50 was > 80 µM (inactive).

`N#Cc1ccccc1COc1ccc(/C=C/C(=O)O)cc1`: the IC50 was 1.48 µM.

With `CC1=CC(C)(C)Nc2ccc(OC(=O)C(C)N3C(=O)c4ccccc4C3=O)cc21` (stereo not drawn), the IC50 was 1.19 µM.

With `O=C(CCCN1C(=O)S/C(=C\c2ccccc2)C1=O)NNC(=O)c1ccccc1O`, the IC50 was 1.06 µM.

In the case of `CC1Cc2ccccc2N1S(=O)(=O)c1cnc(Cl)c(Br)c1` (stereo not drawn), the IC50 was 27.2 µM (inactive).
